{
  "source": "patent US12036200B2",
  "about": "“Bismuth-thiol compositions and methods for treating wounds” (Microbion Corporation, priority 2018, dated 2024)",
  "key": {"[1]": {"tested_on": "Staphylococcus aureus (S. aureus)", "assay": "Staphylococcus aureus mouse model: efficacy of BisEDT on spleen and wound titer (Example 4)", "type": "in vivo", "protocol": "Establishment of Mouse Model: A luminescent strain of Staphylococcus aureus (S. aureus) was administered intravenously to adult, female, Swiss Webster mice and 48 hours was allowed for a biofilm to form. Mice were treated daily intravenously with 100 μL of serial dilutions of BisEDT. In this example, BisEDT was used as a suspension (w:v) (e.g. 150, 375, or 750 μg/mL) of drug particles in diluent, which is composed of 3% methylcellulose/0.5% polysorbate 80/10 mM sodium chloride/10 mM sodium phosphate, pH 7.4.\nImaging Studies: Mice were imaged using Silhouette to determine wound size and volume, and In Vivo Imaging Systems (IVIS) Lumina X5 to quantitate bioluminescence.\nTerminal colony forming units (CFU) were determined by plating homogenized tissue from the wound bed and in the spleen. Mice were euthanized and wound tissue and spleens were harvested. Tissue samples were weighed and placed into microtubes containing sterile phosphate buffer and homogenized. The homogenate was then serially diluted and plated to determine CFU/g tissue.\nAn initial study evaluated the effect of BisEDT suspension on CFUs in the spleen and wound bed. The study occurred over 11 days with 9 days of treatment. The BisEDT suspension was administered to 30 (n=5 mice/group) mice at concentrations of 2500, 250, 25, 2.5, 0.25, 0.25, 0.025 μg/mL. A comparator control was vehicle, or diluent, and 50% DMSO in PBS.\nA subsequent study evaluated the effect of higher concentrations of BisEDT suspension on CFUs in the spleen and wound bed. The study occurred over 12 days with 10 days of treatment. BisEDT suspension was administered to 20 (n=5 mice/group) at concentrations of 10, 5, 2.5, and 0.75 mg/mL. A negative control was mice that were untreated, and a positive control was mice that were treated with Prontosan. […] Complete inhibition was observed compared to the untreated control (FIG. 3). Further, treatment with 5 mg/mL BisEDT reduced CFUs by 1.5-2 logs, greater than the positive prontosan control."}, "[2]": {"tested_on": "Patients with Moderate to Severe Diabetic Foot Infection", "assay": "Phase 1b/2a study of topical BisEDT: wound surface area by 3D digital photographs (Example 6)", "type": "in vivo, human", "conditions": "end of treatment, test of cure and end of study", "protocol": "Adjunctive local administration of BisEDT was tested for its efficacy in resolving both infection and critical colonization, thereby removing these barriers to wound repair and closure. This represents a fundamental, clinically meaningful benefit.\nTopical BisEDT suspension and placebo were used in combination with SOC systemic antibiotics (such as levofloxacin) for a duration of 2-3 weeks. […] BisEDT, when used in conjunction with systemic antibiotics, for a duration of […] (3× per week) may be beneficial in resolving both infection and critical colonization, therefore enabling wound repair and closure, a fundamental, clinically meaningful benefit."}, "[3]": {"tested_on": "subjects with a moderate to severe DFI", "assay": "Phase 1b/2a DFI study (Example 7): clinical response", "type": "in vivo, human", "conditions": "MITT Population, BisEDT dose groups vs placebo", "protocol": "Methodology: This was a randomized, double-blind, placebo-controlled, multicenter study that was planned to be conducted in 2 parts. In Part 1, subjects were enrolled into escalating dose cohorts (BisEDT at concentrations of 150, 375, and 750 μg/mL resulting in doses of 3, 7.5, and 15 μg/cm^2) (N=16 per cohort) at a ratio of 3:1 (BisEDT to placebo).\nIn Part 1, subjects received either topical application of BisEDT or topical application of placebo, applied directly to the infected ulcer, 3 times per week, for a minimum of 2 weeks (ie, 6 doses) and up to a maximum of 3 weeks (ie, 9 doses). […] The determination to stop topical BisEDT therapy after a minimum of 2 weeks (ie, 6 doses) was at the discretion of the Principal Investigator and based on the resolution of clinical findings of infection.\nEfficacy: The following clinical and microbiological efficacy outcomes were assessed: • Proportion of subjects with a clinical cure of infection 2 weeks following the end of dosing, TOC with BisEDT or placebo. […]\nAt the TOC, EOT, and EOS visits, the cure rate (cured vs not cured) was analyzed using an Exact Logistic Regression model with covariates for treatment dose group, the 8-item baseline wound score, and the interaction of treatment group and baseline wound score. […]"}, "[4]": {"tested_on": "subjects with a moderate to severe DFI", "assay": "Phase 1b/2a DFI study (Example 7): microbiological response, colonization, reinfection, relapse", "type": "in vivo, human", "protocol": "Efficacy: The following clinical and microbiological efficacy outcomes were assessed: • Proportion of subjects with a clinical cure of infection 2 weeks following the end of dosing, TOC with BisEDT or placebo. Subjects were classified into one of the following groups: cured (resolution of all clinical signs and symptoms of infection or sufficient improvement such that additional antimicrobial therapy was not required), failure (insufficient resolution of at least one of the initial signs and symptoms of infection, or the need for any additional or alternative antimicrobial therapy, or the need for surgical treatment of the infection), or indeterminate (assessment not possible for any reason). • Proportion of subjects with a clinical cure at EOT with BisEDT or placebo. • Proportion of subjects with a confirmed or presumed microbiological cure 2 weeks following the end of dosing, TOC. Subjects were classified into one of the following groups: confirmed eradication (all of the original pathogens were absent), presumed eradication (there was no available material for culture but the infection clinically responded to treatment), persistence (presence of a pathogen isolated at baseline), or indeterminate (inability to determine microbiological response). • Proportion of subjects with a confirmed or presumed microbiological cure at the EOT and EOS. At the EOS visit, additional classification groups included: colonization (isolation of a new organism that was not present on the initial culture but the wound was not clinically infected); reinfection (isolation of a new organism that was not present on the initial culture and the wound was clinically infected) or relapse (the same organism that was present on the initial culture was again isolated, after an intervening confirmed [sterile culture] or presumed [no material to culture] microbiological response and the wound was clinically infected). • Change from baseline in the Biofilm Score at EOT and TOC. • Proportion of subjects that underwent lower-extremity amputation involving the infected foot. • Proportion of subjects needing any infection-related surgery (ie, lower-extremity amputation, incision and drainage of a new abscess, or soft tissue or bone resection) after treatment had started. • Change from baseline in the 8-item DFI wound score at EOT, TOC, and EOS. • Percent reduction in ulcer size at EOS and each study visit.\nMicrobiological Response: The distribution of microbiological response outcome categories (confirmed eradication, presumed eradication, persistence, and indeterminate) are descriptively summarized by treatment group using counts and percentages at the TOC, EOT, and EOS visits. The eradication rate (confirmed+presumed vs the rest) was analyzed using the same methodology as clinical response. Analyses are presented for the ME Population.\nColonization, Reinfection, and Relapse: At the EOS visit, the number and percentage of subjects with a colonization, reinfection, or relapse are tabulated by treatment group for the ME Population.\nMicrobiologic assessment. Cultures were collected at baseline and as needed for the treatment of the subject. Tissue samples were shipped to a central laboratory where the presence of viable microorganisms was determined by standard microbiological culture methods and included speciation. […] The susceptibility of bacterial isolates to BisEDT was also determined, but was not reported to investigators."}, "[5]": {"tested_on": "subjects with a moderate to severe DFI", "assay": "Phase 1b/2a DFI study (Example 7): biofilm score", "type": "in vivo, human", "conditions": "ME Population, BisEDT dose groups vs placebo", "source_text": "Biofilm Response: The distribution of absolute scores at the EOT and TOC visits are descriptively summarized using counts and percentages by treatment group. Treatments were compared using the Cochran Mantel Haenszel mean score test statistic, and the p-value is presented. Additionally, shift tables showing individual subject changes from baseline to EOT and TOC visits are presented. Analyses are presented for the ME Population.\nBiofilm response: The following categories were used: score 0, no bacteria observed; 1, single individual cells; 2, small micro-colonies (˜10 cells); 3, large micro-colonies (˜100 cells); 4, continuous film; 5, thick continuous film. Subjects with no debridement material as a result of their DFI healing were given a score of 0. The distribution of absolute scores at the EOT and TOC visits are descriptively summarized using counts and percentages by treatment group. Treatments were compared using the Cochran Mantel Haenszel mean score test statistic, and the p-value is presented. Additionally, a shift table showing individual subject changes from baseline to EOT and TOC visits is presented. Analyses are presented for the ME Population."}, "[6]": {"assay": "Phase 1b/2a DFI study (Example 7): pharmacokinetic evaluation, blood concentration of bismuth", "type": "in vivo, human", "conditions": "topical BisEDT 3, 7.5, 15 μg/cm^2; whole blood concentrations", "protocol": "The primary objective of Part 1 of this study and the planned primary objective of Part 2 of this study was to evaluate the safety and tolerability of topically administered BisEDT composition as adjunct to standard of care (including systemic antibiotic therapy) in subjects with a moderate to severe DFI. […]\nThe mean bismuth concentration by day for the PK Concentration Population included: 8 subjects on Day 1 predose (only 2 subjects with detectable levels of 0.582 and 0.548 ng/mL, hypothesized to be from undisclosed use of bismuth containing medications or from dressings containing bismuth, such as Xeroform®, as blood was collected before treatment with BisEDT); 8 subjects on Day 3 predose (only 1 subject with a detectable level of 0.525 ng/mL); 8 subjects on Day 5 predose (only 1 subject with a detectable level of 0.701 ng/mL); and 8 subjects on Day 8 predose (only 1 subject with a detectable level of 0.513 ng/mL). […] Bismuth levels were not measured in samples that were erroneously processed to plasma by the 1 site that enrolled the majority of the subjects in the PK study, as bismuth levels are expected to be 15 to 20 times lower in plasma samples compared to whole blood samples and would be well below the lower limit of quantitation for the assay method; no PK parameters were calculated."}, "[7]": {"assay": "Phase 1b/2a DFI study (Example 7): safety and tolerability", "type": "in vivo, human", "source_text": "The primary objective of Part 1 of this study and the planned primary objective of Part 2 of this study was to evaluate the safety and tolerability of topically administered BisEDT composition as adjunct to standard of care (including systemic antibiotic therapy) in subjects with a moderate to severe DFI. The secondary objectives of Part 1 of this study and the planned secondary objectives of Part 2 of this study were: To evaluate the effect of adjunctive BisEDT composition on resolution of infection; To evaluate the effect of adjunctive BisEDT composition on eradication of pathogens; To evaluate the effect of BisEDT composition on eradication of biofilms; To evaluate the effect of BisEDT composition on wound healing; To evaluate the effect of BisEDT composition for the prevention of lower extremity amputations; To evaluate the effect of BisEDT composition for the prevention of infection related surgery; To evaluate the effect of BisEDT composition on duration of systemic antibiotic use; To evaluate the effect of BisEDT composition on length of hospital stay; To evaluate the systemic absorption and pharmacokinetics of topically administered BisEDT composition."}, "[8]": {"assay": "Particle size of microparticulate BisEDT, Nanosizer/Zetasizer Nano-S (Example 1)", "type": "physicochemical", "conditions": "resuspended in 2% Pluronic F-68, sonicated", "protocol": "The dried particulate matter was characterized to assess the particle size properties. Briefly, microparticles were resuspended in 2% Pluronic® F-68 (BASF, Mt. Olive, NJ) and the suspension was sonicated for 10 minutes in a water bath sonicator at standard setting prior to analysis using a Nanosizer/Zetasizer Nano-S particle analyzer (model ZEN1600 (without zeta-potential measuring capacity), Malvern Instruments, Worcestershire, UK) according to the manufacturer's recommendations."}, "[9]": {"conditions": "EOS visit, ME Population, BisEDT dose groups vs placebo"}, "[10]": {"conditions": "topical doses of 3, 7.5, and 15 μg/cm^2"}},
  "note": "“Also recorded” adds a separate entry of the source.",
  "data": [
    {"smiles": "C1C[S][Bi]([S]CC[S][Bi]2[S]CC[S]2)[S]1", "note": "[BisEDT, bismuth-1,2-ethanedithiol]", "values": [
      {"measurement": "mice exhibiting no infection (spleen)", "setting": "[1]; 2.5 mg/mL BisEDT (FIG. 4)", "value": "three"},
      {"measurement": "reduction of wound titer compared to diluent", "setting": "[1]; 2500 μg/mL BisEDT suspension, mice, 9 days of treatment (FIG. 1)", "value": "approximately five"},
      {"measurement": "reduction of CFU compared to untreated control", "setting": "[1]; 10 mg/mL BisEDT, mice, 10 days of treatment, complete inhibition (FIG. 3)", "value": "more than eight"},
      {"measurement": "proportion of subjects with >50% reduction in wound surface area from baseline, compared to placebo", "setting": "[2]", "value": "larger proportion"},
      {"measurement": "clinical response, comparison of treatment groups", "setting": "[3]; EOT visit", "value": "No difference between treatment groups was observed"},
      {"measurement": "clinical response, comparison of treatment groups", "setting": "[3]; TOC visit", "value": "No difference between treatment groups was observed"},
      {"measurement": "colonization, reinfection, and relapse, comparison of treatment groups", "setting": "[4]; [9]", "value": "No difference between treatment groups was observed"},
      {"measurement": "microbiological response, comparison of treatment groups", "setting": "[4]; [9]", "value": "No difference between treatment groups was observed"},
      {"measurement": "microbiological response, comparison of treatment groups", "setting": "[4]; EOT visit, ME Population, BisEDT dose groups vs placebo", "value": "No difference between treatment groups was observed"},
      {"measurement": "microbiological response, comparison of treatment groups", "setting": "[4]; TOC visit, ME Population, BisEDT dose groups vs placebo", "value": "No difference between treatment groups was observed"},
      {"measurement": "reduction of reinfection or relapse with BisEDT compared to placebo", "setting": "[4]; all dose groups combined 12.5% vs placebo 33.3%, EOS visit", "value": "approximately one-third"},
      {"measurement": "biofilm response, comparison of treatment groups", "setting": "[5]; EOT visit", "value": "No difference in biofilm response at the EOT visit between treatment groups was observed"},
      {"measurement": "biofilm response, comparison of treatment groups", "setting": "[5]; TOC visit", "value": "No difference in biofilm response at the TOC visit between treatment groups was observed"},
      {"measurement": "systemic exposure", "setting": "[6]", "value": "very little systemic exposure; also recorded: does not appear to exhibit any relevant systemic exposure; also recorded: limited systemic exposure"},
      {"measurement": "TEAEs and SAEs related to study drug", "setting": "[7]; [10]", "value": "None of the TEAEs and SAEs occurring in the study were considered related to study drug"},
      {"measurement": "safety signals", "setting": "[7]; [10]", "value": "No safety signals were identified"},
      {"measurement": "safety and tolerability", "setting": "[7]; topical doses of 3, 7.5, and 15 μg/cm^2, 3 times per week, 2-3 weeks", "value": "safe and well tolerated"},
      {"measurement": "peak VMD", "setting": "[8]", "value": "about 1.3 microns"}
    ]}
  ]
}
